The test system of one assay is 6-keto-PGF1. Kind of assay: 6-keto-PGF1 levels in a septic shock model in rat. Format: in vivo. Conditions: rats with septic shock + Tβ4 1 mg/rat × 3. The text has this:
Using a septic shock model in rats (Sprague-Dawley, male, 200-225 g each), the effect of thymosin β4 alone and together with antibiotics was studied. Peritonitis was induced in rats in the following way. A 1-cm incision was made into the peritoneal which exposed the cecum. A tight ligature was placed around the cecum with 4-0 suture distal to the insertion of the small bowel, forming an area of devitalized tissue while maintaining bowel continuity. A puncture wound was made with 16-gauge needle into the anti-mesenteric surface of the cecum and a small amount of fecal contents was expressed through the wound. The cecum was replaced into the peritoneal cavity, and the anterior peritoneal wall and skin were closed with surgical staples. Each animal was given a bolus of normal saline (15 ml/kg) for hydration and allowed to recover overnight.
The results presented in Tables XV to XVIII below show effects of Tβ4 respectively on rat cytokine levels, blood malonyldialdehyde levels, glutathione levels and arachidonic acid metabolic levels.

In another assay the test system is PAF. As to the kind of experiment: PAF blood levels in mice after lethal dose of endotoxin. It is filed as in vivo. Conditions: endotoxin 60 mg/kg + Tβ4 100 μg administered simultaneously; for PAF (plasma levels): Table IX; for PAF (serum levels): Table XII. The source says:
Using the same methods and materials as in examples 1-3, the effect which Tβ4 has on blood levels of IL-1α, TNF-α, PAG, Txβ2 and 6-keto-PGF1 α, which are pathological mediators of endotoxin induced lethality, was studied.

The results in this text go back to patent publication US5578570A, “Method of treating septic shock using thymosin β4” (The George Washington University Medical Center, priority 1994, dated 1996).

For Thymosin β4 [Tβ4], in the assay on 6-keto-PGF1, the 6-keto-PGF1 was found to be 829 ± 59 pg/mL. Further, the “PAF (plasma levels)” value with PAF (0.5 hr.) stood at 63 ± 7 pg/mL; in the assay on PAF (1 hr), 161 ± 17 pg/mL; in the assay with PAF (2 hr) it was 66 ± 5 pg/mL; in the assay with PAF (3 hr), 46 ± 5 pg/mL. Moreover, the entries for the “PAF (serum levels)” value with PAF (1 hr), in the assay with PAF (3 hr) and in the assay on PAF (5 hr) were 807 pg/mL, 591 pg/mL and 496 pg/mL, respectively.
